Data: PubChem BioAssay (NCI)
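Exposure lasted 48 hours, with cells grown in 96-well plates and compounds tested at five concentrations. At the GI50, growth is halved. TGI denotes the concentration required for complete inhibition of growth.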

Assays:
Assay in all cases: DTP human tumour cell line panel, 48 h
HS 578T breast = test system: HS 578T breast
MALME-3M melanoma = test system: MALME-3M melanoma
CCRF-CEM leukemia = test system: CCRF-CEM leukemia
NCI-H23 lung = test system: NCI-H23 lung
OVCAR-4 ovarian = test system: OVCAR-4 ovarian
RXF 393 renal = test system: RXF 393 renal
LOX IMVI melanoma = test system: LOX IMVI melanoma
HOP-92 NSCLC = test system: HOP-92 NSCLC
786-0 renal = test system: 786-0 renal
ACHN renal = test system: ACHN renal
IGROV1 ovarian = test system: IGROV1 ovarian
MDA-MB-435 = test system: MDA-MB-435
SF-268 CNS = test system: SF-268 CNS
U251 CNS = test system: U251 CNS
HT29 colon = test system: HT29 colon
UACC-62 melanoma = test system: UACC-62 melanoma
DU-145 prostate = test system: DU-145 prostate
A498 renal = test system: A498 renal
KM12 colon = test system: KM12 colon
COLO 205 colon = test system: COLO 205 colon
HCC-2998 colon = test system: HCC-2998 colon
MOLT-4 leukemia = test system: MOLT-4 leukemia
UACC-257 melanoma = test system: UACC-257 melanoma
HOP-62 NSCLC = test system: HOP-62 NSCLC
OVCAR-5 ovarian = test system: OVCAR-5 ovarian
HCT-15 colon = test system: HCT-15 colon
CAKI-1 renal = test system: CAKI-1 renal
BT-549 breast = test system: BT-549 breast
OVCAR-8 ovarian = test system: OVCAR-8 ovarian
NCI-H522 lung = test system: NCI-H522 lung
SK-MEL-5 melanoma = test system: SK-MEL-5 melanoma
MDA-MB-231 breast = test system: MDA-MB-231 breast
SF-295 CNS = test system: SF-295 CNS
SK-OV-3 ovarian = test system: SK-OV-3 ovarian
SR leukemia = test system: SR leukemia
UO-31 renal = test system: UO-31 renal
SNB-19 CNS = test system: SNB-19 CNS
EKVX NSCLC = test system: EKVX NSCLC
TK-10 renal = test system: TK-10 renal
M14 melanoma = test system: M14 melanoma
MCF7 breast = test system: MCF7 breast
NCI-H460 lung = test system: NCI-H460 lung
K-562 leukemia = test system: K-562 leukemia
SK-MEL-2 melanoma = test system: SK-MEL-2 melanoma
NCI/ADR-RES ovarian = test system: NCI/ADR-RES ovarian
SK-MEL-28 melanoma = test system: SK-MEL-28 melanoma
HCT-116 colon = test system: HCT-116 colon
A549 NSCLC = test system: A549 NSCLC
SW-620 colon = test system: SW-620 colon
RPMI-8226 leukemia = test system: RPMI-8226 leukemia
T-47D breast = test system: T-47D breast
SNB-75 CNS = test system: SNB-75 CNS
HL-60(TB) leukemia = test system: HL-60(TB) leukemia
NCI-H226 lung = test system: NCI-H226 lung
SF-539 CNS = test system: SF-539 CNS
SN12C renal = test system: SN12C renal
PC-3 prostate = test system: PC-3 prostate

Question: Which results are given for `Oc1ccc(-c2nnc(SCc3ccc(O)c4ncccc34)o2)cc1`?
Answer: GI50 (HS 578T breast): 388 nM; TGI (HS 578T breast): > 22300 nM; GI50 (MALME-3M melanoma): 1960 nM; TGI (MALME-3M melanoma): 17600 nM; GI50 (CCRF-CEM leukemia): 833 nM; TGI (CCRF-CEM leukemia): > 100000 nM; GI50 (NCI-H23 lung): 527 nM; TGI (NCI-H23 lung): 11600 nM; GI50 (OVCAR-4 ovarian): 3410 nM; TGI (OVCAR-4 ovarian): > 100000 nM; GI50 (RXF 393 renal): 1430 nM; TGI (RXF 393 renal): 34300 nM; GI50 (LOX IMVI melanoma): 406 nM; TGI (LOX IMVI melanoma): 11900 nM; GI50 (HOP-92 NSCLC): 219 nM; TGI (HOP-92 NSCLC): 747 nM; GI50 (786-0 renal): 2640 nM; TGI (786-0 renal): 9550 nM; GI50 (ACHN renal): 1080 nM; TGI (ACHN renal): 10100 nM; GI50 (IGROV1 ovarian): 2230 nM; TGI (IGROV1 ovarian): 13200 nM; GI50 (MDA-MB-435): 418 nM; TGI (MDA-MB-435): > 100000 nM; GI50 (SF-268 CNS): 658 nM; TGI (SF-268 CNS): 35300 nM; GI50 (U251 CNS): 386 nM; TGI (U251 CNS): 13700 nM; GI50 (HT29 colon): 3570 nM; TGI (HT29 colon): > 100000 nM; GI50 (UACC-62 melanoma): 2430 nM; TGI (UACC-62 melanoma): 7100 nM; GI50 (DU-145 prostate): 582 nM; TGI (DU-145 prostate): 28900 nM; GI50 (A498 renal): 2370 nM; TGI (A498 renal): 7490 nM; GI50 (KM12 colon): 1560 nM; TGI (KM12 colon): > 100000 nM; GI50 (COLO 205 colon): 3060 nM; TGI (COLO 205 colon): 11400 nM; GI50 (HCC-2998 colon): 3220 nM; TGI (HCC-2998 colon): > 68800 nM; GI50 (MOLT-4 leukemia): 1260 nM; TGI (MOLT-4 leukemia): > 100000 nM; GI50 (UACC-257 melanoma): 2530 nM; TGI (UACC-257 melanoma): 7890 nM; GI50 (HOP-62 NSCLC): 543 nM; TGI (HOP-62 NSCLC): 7590 nM; GI50 (OVCAR-5 ovarian): 3330 nM; TGI (OVCAR-5 ovarian): > 100000 nM; GI50 (HCT-15 colon): 510 nM; TGI (HCT-15 colon): > 100000 nM; GI50 (CAKI-1 renal): 2260 nM; TGI (CAKI-1 renal): 8840 nM; GI50 (BT-549 breast): 444 nM; TGI (BT-549 breast): 21200 nM; GI50 (OVCAR-8 ovarian): 440 nM; TGI (OVCAR-8 ovarian): > 40000 nM; GI50 (NCI-H522 lung): 402 nM; TGI (NCI-H522 lung): 20500 nM; GI50 (SK-MEL-5 melanoma): 854 nM; TGI (SK-MEL-5 melanoma): > 22800 nM; GI50 (MDA-MB-231 breast): 1960 nM; TGI (MDA-MB-231 breast): 14700 nM; GI50 (SF-295 CNS): 978 nM; TGI (SF-295 CNS): 10600 nM; GI50 (SK-OV-3 ovarian): 1770 nM; TGI (SK-OV-3 ovarian): 6540 nM; GI50 (SR leukemia): 1100 nM; TGI (SR leukemia): > 100000 nM; GI50 (UO-31 renal): 1350 nM; TGI (UO-31 renal): 6440 nM; GI50 (SNB-19 CNS): 450 nM; TGI (SNB-19 CNS): 38200 nM; GI50 (EKVX NSCLC): 2630 nM; TGI (EKVX NSCLC): 11300 nM; GI50 (TK-10 renal): 2250 nM; TGI (TK-10 renal): 7840 nM; GI50 (M14 melanoma): 544 nM; TGI (M14 melanoma): 3880 nM; GI50 (MCF7 breast): 721 nM; TGI (MCF7 breast): > 100000 nM; GI50 (NCI-H460 lung): 364 nM; TGI (NCI-H460 lung): 5090 nM; GI50 (K-562 leukemia): 418 nM; TGI (K-562 leukemia): > 100000 nM; GI50 (SK-MEL-2 melanoma): 587 nM; TGI (SK-MEL-2 melanoma): 6910 nM; GI50 (NCI/ADR-RES ovarian): 1540 nM; TGI (NCI/ADR-RES ovarian): > 73700 nM; GI50 (SK-MEL-28 melanoma): 2080 nM; TGI (SK-MEL-28 melanoma): > 100000 nM; GI50 (HCT-116 colon): 379 nM; TGI (HCT-116 colon): 26300 nM; GI50 (A549 NSCLC): 839 nM; TGI (A549 NSCLC): > 31100 nM; GI50 (SW-620 colon): 680 nM; TGI (SW-620 colon): > 100000 nM; GI50 (RPMI-8226 leukemia): 544 nM; TGI (RPMI-8226 leukemia): > 100000 nM; GI50 (T-47D breast): 2430 nM; TGI (T-47D breast): 9390 nM; GI50 (SNB-75 CNS): 898 nM; TGI (SNB-75 CNS): 8400 nM; GI50 (HL-60(TB) leukemia): 1390 nM; TGI (HL-60(TB) leukemia): 6190 nM; GI50 (NCI-H226 lung): 3130 nM; TGI (NCI-H226 lung): > 100000 nM; GI50 (SF-539 CNS): 666 nM; TGI (SF-539 CNS): 15000 nM; GI50 (SN12C renal): 417 nM; TGI (SN12C renal): > 38500 nM; GI50 (PC-3 prostate): 584 nM; TGI (PC-3 prostate): > 100000 nM
